Like-named read-outs stand apart in the source and are kept apart here.

Test [1] addresses KDR kinase (790-1356 AA) (Homo sapiens (Human), UniProt P35968). The test can be described thus: Inhibitory activity at KDR kinase (Lance Ultra Ulight-TK assay). The class given is biochemical. The protocol:
Inhibitory Activity of Compounds at KDR Kinase
• [Experimental method]: Use Lance@Ultra Ulight™-TK assay kit from PerKinElmer to evaluate the inhibitory activity of compounds at KDR kinase. • [Instrument]: PerKinElmer's ENVISION plate reader • [Materials]: Optiplate-384 well plate (PerKinElmer), kinase buffer (50 mM Hepes pH7.5, 0.25 mM EGTA, 2 mM DTT, 0.01% Tween 20, 10 mM Mg^2+, 0.5 mM Mn^2+), KDR kinase (790-1356 AA, Crown Bioscience), KDR kinase substrate (PerKinElmer catalogue # TRF0127-M), Lance@Eu-W1024-anti-phosphotyrosine (PT66) (PerKinElmer, catalogue #AD0068), ATP (Invitrogen), DMSO (Sigma, catalogue #34869), purified water (Millipore, type: Milli-Q). • [Study conditions]: Mix KDR (final concentration: 20 nM) and compound (final DMSO: 0.5%), pre-incubate for 20 min at 30° C.; then add ATP (final concentration: 90 μM) and the substrate (final concentration […]). React for 2 hrs at 30° C. After the reaction, add antibody and reaction for 60 min at 30° C. Read the plate (615 nm, 665 nm), calculate the ratio of the value at 665 nm vs 615 nm and analyze the data. • [Samples]: Compounds in the examples and Sorafenib (positive control) • [Data Analysis]: Use CBIS data analysis software to calculate IC50 values

For test [2], the system named is pERK in MDA-MB-231 cells. Briefly: Inhibitory activity at pERK (In Cell Western, MDA-MB-231 cells). In kind it is cell-based. Here is the method: Inhibitory Activity of Compounds at pERK
When the cells reach 80% confluency, collect cells by trypsinization and centrifugation at 800 rpm for 3 minutes. Resuspend cells with appropriate volume of medium and count cell numbers. Adjust cell concentration to 70000 cells/mL, and split 100 μL cell suspension per well into 96-well plates. Transfer the plates into cell culture incubator (37° C., 5% CO2) and incubate cells overnight. Discard the medium, wash with PBS once, Prepare compound serial dilutions in culture medium with total 8 compound concentrations at 3-fold serial dilutions (the final top concentration starts from 30 μM). Dispense 75 μL DMEM medium (with 0.1% BSA) and 25 μL of each test compound dilution into corresponding wells with DMSO at 0.3% final concentration. Continue incubating cells in cell culture incubator for additional 2 hrs at 37° C., 5% CO2. Discard culture medium, and wash cells once with PBS. Add 100 μL of 4% formaldehyde solution to each well and fix for 20 min. Discard the formaldehyde, then add 100 μL ice-cold 100% methanol at 4° C. for 20 min. Discard methanol, wash with PBS three times. Add to each well 100 μL of 2% BSA solution, seal for 30 min at room temperature. Discard the BSA solution, add to each well 50 μL of the 1st antibody solution (prepared with 2% BSA, 1:250 dilution), incubate at 4° C. overnight. Discard the 1^St antibody solution, wash with PBS four times. Add to each well […] the 2nd antibody solution (prepared with 1% BSA, 1:1000 dilution), incubate at room temperature for 1 hr. Discard the 2nd antibody solution, wash with PBS four times, add to each well 100 μL PI solution (1.5 μM), incubate at room temperature for 30 min. Use Acumen (TPP) to measure the fluorescence. • [Samples]: Compounds in the examples and sorafenib (positive control) • [Data Analysis]: Use CBIS data analysis software to calculate IC50 values

Test [3] concerns PLC-PRF-5 cells. Briefly: Inhibition of proliferation of PLC-PRF-5 cells (ATPlite). In kind it is cell-based. The source says:
Inhibitory Activity of Compounds to the Proliferation of PLC-PRF-5 Cells
• [experimental Method]: Use PerKinElmer's ATPlite™ Luminescence ATP Detection Assay System to evaluate the inhibitory activity of compounds to the proliferation of PLC-PRF-5 cells. • [Instruments]: ENVISION plate reader (PerKinElmer) and centrifuge (Thermo Scientific, Sorvall ST16R) • [material]: PLC-PRF-5 cells (ATCC), 96-well plate (Nunc, #165305), DMEM medium (Gibco, #11965-092), PBS (Invitrogen, #10010023), fetal bovine serum (Gibco, #16000044), DMSO (Sigma, #D2650), ATPlite™ Luminescence ATP Detection Assay System (PerkinElmer, #6016949), purified water (Millipore, type: Milli-Q). • [Protocol]: Grow PLC-PRF-5 cells in DMEM supplemented with 10% FBS. When the cells reach 80% confluency, collect cells by trypsinization and centrifugation at 800 rpm for 3 min. Resuspend cells with appropriate volume of medium and count cell numbers. Adjust cell concentration to 50000 cells/mL, and split 160 μL cell suspension per well into 96-well plates. Transfer the plates into cell culture incubator (37° C., 5% CO2) and incubate cells for 2 hrs. Prepare compound serial dilutions in culture medium with total 8 compound concentrations at 3-fold serial dilutions (the final top concentration starts from 30 μM). Dispense 40 μL of each test compound dilution into corresponding wells with DMSO at 0.3% final concentration. Continue incubating cells in cell culture incubator for additional 96 hrs at 37° C., 5% CO2. Discard culture medium, and wash cells once with PBS. Add 50 μL cell lysis buffer per well and shake plates for 5 min at room temperature to ensure complete lysis of cells. Then add 50 μL of substrate solution and shake plates for 1 min at room temperature. Allow the plates to incubate at room temperature for 5 min, followed by recording the luminescence signals using Envision, and subsequent data analysis. • [Samples]: Compounds in the examples and Sorafenib (positive control) • [Data analysis]: Use CBIS data analysis software to calculate IC50 values
(In general: Cellular ATP, detected with luciferase, serves as a proxy for viable cell number.)

[4] abbreviates: Homo sapiens, MDA-MB-231, MDA-MB-231 cells, read-out: MDA-MB-231 pERK IC50.
Where [5] appears, read: Homo sapiens, PLC-PRF-5, PLC-PRF-5 cells, read-out: PLC-PRF-5 cell proliferation IC50.

Sequence of KDR kinase (790-1356 AA) (P35968 790-1356): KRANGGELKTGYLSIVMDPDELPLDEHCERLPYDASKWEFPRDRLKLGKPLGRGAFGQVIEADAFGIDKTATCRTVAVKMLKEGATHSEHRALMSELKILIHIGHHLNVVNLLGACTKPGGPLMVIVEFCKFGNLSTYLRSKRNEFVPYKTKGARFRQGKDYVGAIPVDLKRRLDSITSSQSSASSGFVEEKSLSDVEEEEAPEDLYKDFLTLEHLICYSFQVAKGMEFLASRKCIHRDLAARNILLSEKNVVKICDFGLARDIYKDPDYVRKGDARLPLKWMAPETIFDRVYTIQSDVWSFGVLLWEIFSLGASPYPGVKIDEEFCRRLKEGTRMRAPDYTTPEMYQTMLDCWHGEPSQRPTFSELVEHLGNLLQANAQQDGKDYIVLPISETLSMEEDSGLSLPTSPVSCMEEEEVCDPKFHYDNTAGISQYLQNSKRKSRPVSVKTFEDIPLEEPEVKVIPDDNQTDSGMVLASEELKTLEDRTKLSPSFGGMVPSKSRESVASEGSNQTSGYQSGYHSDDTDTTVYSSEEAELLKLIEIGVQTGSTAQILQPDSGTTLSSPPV

For `Cc1cc(Oc2ccnc(NC(=O)C3CC3)c2)ncc1NC(=O)Nc1ccc(Cl)c(C(F)(F)F)c1` [Exe. 018], the IC50 in test [1] came out at 9.4 nM; in test [2] (setting [4]) it was 4.6 nM; in test [3] (setting [5]) it was 4040 nM.

Regarding `O=C(Nc1ccc(Oc2cc(NC(=O)C3CC3)ncn2)c(Cl)c1)Nc1ccc(F)c(C(F)(F)F)c1` [Exe. 088], the IC50 in test [1] was 11.4 nM; in test [2] (setting [4]) it was 106 nM; in test [3] (setting [5]) it was 2050 nM.

`Cc1cc(Oc2ccnc(NC(=O)C3CC3)c2)ccc1NC(=O)Nc1cc(F)cc(C(C)(F)F)c1` [Exe. 197]: the IC50 in test [1] came out at 5.7 nM; in test [2] (setting [4]) it was 14.2 nM; in test [3] (setting [5]) it was 3290 nM.

Turning to `Cc1cc(Oc2cc(NC(=O)C3CC3)ncn2)c(F)cc1NC(=O)Nc1ccc(Cl)c(C(F)(F)F)c1` [Exe. 003], the IC50 in test [1] was determined as 16.7 nM; in test [2] (setting [4]) it was 87 nM; in test [3] (setting [5]), 11500 nM.

Consider `O=C(Nc1cc(F)cc(Oc2cc(NC(=O)C3CC3)ncn2)c1)Nc1ccc(Cl)c(C(F)(F)F)c1` [Exe. 005], for which the IC50 in test [1] is 27 nM; in test [2] (setting [4]), 40.6 nM; in test [3] (setting [5]), 6000 nM.

For `O=C(Nc1cccc(C(F)(F)F)c1)Nc1ccc(Nc2ccnc(NC(=O)C3CC3)c2)cc1F` [Exe. 204], the IC50 in test [1] worked out at 9.3 nM; in test [2] (setting [4]), 72 nM; in test [3] (setting [5]), 1850 nM.

With `CN1CCC(C(=O)Nc2cc(NC(=O)Nc3ccc(Oc4ccnc(NC(=O)C5CC5)c4)c(F)c3)cc(C(F)(F)F)c2)CC1` [Exe. 242], the results for the IC50 in test [1], in test [2] (setting [4]) and in test [3] (setting [5]) were 16.7 nM, 372 nM and 4630 nM, respectively.

Consider `N#Cc1cc(NC(=O)Nc2ccc(Cl)c(C(F)(F)F)c2)ccc1Oc1cc(NC(=O)C2CC2)ncn1` [Exe. 006], for which the results for the IC50 in test [1], in test [2] (setting [4]) and in test [3] (setting [5]) were 25 nM, 281 nM and 5380 nM, respectively.

Turning to `Cc1cc(Oc2cc(NC(=O)C3CC3)ncn2)ccc1NC(=O)Nc1cccc(C(C)(F)F)c1` [Exe. 084], the IC50 was 12.2 nM in test [1], 122 nM in test [2] (setting [4]) and 5860 nM in test [3] (setting [5]).

For the compound `CC(F)(F)c1ccc(F)c(NC(=O)Nc2cnc(Oc3ccnc(NC(=O)C4CC4)c3)c(F)c2)c1` [Exe. 202], the results for the IC50 in test [1], in test [2] (setting [4]) and in test [3] (setting [5]) were 12.7 nM, 246 nM and 66 nM, respectively.

On to `Cc1cc(Oc2cc(NC(=O)C3CC3)ncn2)ccc1NC(=O)Nc1cc(NC2CCN(C)CC2)cc(C(F)(F)F)c1` [Exe. 076], for which the IC50 in test [1] worked out at 12.5 nM; in test [2] (setting [4]), 83 nM; in test [3] (setting [5]) it was 5600 nM.

`CC(F)(F)c1cncc(NC(=O)Nc2ccc(Oc3ccnc(NC(=O)C4CC4)c3)cc2F)c1` [Exe. 033]: the IC50 was 5.6 nM in test [1], 5 nM in test [2] (setting [4]) and 35 nM in test [3] (setting [5]).

For the compound `Cc1cc(Oc2cc(NC(=O)C3CC3)ncn2)ccc1NC(=O)Nc1cc(F)cc(C(C)(F)F)c1` [Exe. 083], the IC50 turned out to be 14.3 nM in test [1], 609 nM in test [2] (setting [4]) and 20400 nM in test [3] (setting [5]).

`O=C(Nc1ccc(Oc2ccnc(NC(=O)C3CC3)c2)c(F)c1)Nc1cc(OC(F)(F)F)ccc1F` [Exe. 176]: the IC50 was 5.7 nM in test [1], 40 nM in test [2] (setting [4]) and 60 nM in test [3] (setting [5]).

Consider `O=C(Nc1cc(N2CCN(CCF)CC2)cc(C(F)(F)F)c1)Nc1ccc(Oc2ccnc(NC(=O)C3CC3)c2)c(F)c1` [Exe. 053], for which the IC50 in test [1] was determined as 13 nM; in test [2] (setting [4]), 65.1 nM; in test [3] (setting [5]) it was 686 nM.

Consider `O=C(Nc1cccc(C(F)(F)F)c1)Nc1cnc(Oc2ccnc(NC(=O)C3CC3)c2)c(F)c1` [Exe. 201], for which the IC50 stood at 11.4 nM in test [1], 326 nM in test [2] (setting [4]) and 239 nM in test [3] (setting [5]).

Consider `O=C(Nc1cc(C2CCN(C3CC3)CC2)cc(C(F)(F)F)c1)Nc1ccc(Oc2ccnc(NC(=O)C3CC3)c2)c(F)c1` [Exe. 060], for which the values for the IC50 in test [1], in test [2] (setting [4]) and in test [3] (setting [5]) were 34.3 nM, 324 nM and 1510 nM, respectively.

In the case of `CC(c1cc(NC(=O)Nc2ccc(Oc3ccnc(NC(=O)C4CC4)c3)c(F)c2)cc(C(F)(F)F)c1)N1CCNCC1` (centres unmarked) [Exe. 067, N-[4-[2-fluoro-4-[[3-(1-piperazin-1-ylethyl)-5-(trifluoromethyl)phenyl]carbamoylamino]phenoxy]-2-pyridyl]cyclopropanecarboxamide], the IC50 in test [2] (setting [4]) was determined as 75.9 nM; in test [3] (setting [5]) it was 235 nM.

Take `O=C(Nc1cc(F)cc(Oc2cc(NC(=O)C3CC3)ncn2)c1)Nc1cc(F)cc(C(F)(F)F)c1` [Exe. 098]: the IC50 was 105 nM in test [1], 752 nM in test [2] (setting [4]) and 8400 nM in test [3] (setting [5]).

Take `Cc1cc(NC(=O)Nc2ccc(Cl)c(C(C)(F)F)c2)cc(Oc2cc(NC(=O)C3CC3)ncn2)c1` [Exe. 096]: the IC50 in test [1] came out at 624 nM; in test [2] (setting [4]), 28 nM; in test [3] (setting [5]), 21000 nM.

Regarding `N#Cc1cc(NC(=O)Nc2ccc(Cl)c(C(F)(F)F)c2)ccc1Oc1ccnc(NC(=O)C2CC2)c1` [Exe. 026], the values for the IC50 in test [1], in test [2] (setting [4]) and in test [3] (setting [5]) were 18.2 nM, 39 nM and 900 nM, respectively.

As for `CC(F)(F)c1cc(NC(=O)Nc2cc(F)cc(Oc3cc(NC(=O)C4CC4)ncn3)c2)ccc1Cl` [Exe. 099], the IC50 in test [1] was 41 nM; in test [2] (setting [4]), 37 nM; in test [3] (setting [5]), 15000 nM.

For `O=C(Nc1ccc(F)c(C2CC2)c1)Nc1ccc(Oc2ccnc(NC(=O)C3CC3)c2)cc1F` [Exe. 222], the IC50 was 8.7 nM in test [1], 17.3 nM in test [2] (setting [4]) and 490 nM in test [3] (setting [5]).

On to `N#Cc1ccc(NC(=O)Nc2ccc(Oc3ccnc(NC(=O)C4CC4)c3)cc2F)cc1C(F)(F)F` [Exe. 206], for which the IC50 stood at 14.6 nM in test [1]; 8.2 nM in test [2] (Homo sapiens, MDA-MB-231, read-out: MDA-MB-231 pERK IC50); 1650 nM in test [3] (Homo sapiens, PLC-PRF-5, read-out: PLC-PRF-5 cell proliferation IC50).

For `Cc1cc(Oc2cc(NC(=O)C3CC3)ncn2)ccc1NC(=O)Nc1cc(C2CCN(C)CC2)cc(C(F)(F)F)c1` [Exe. 073], in test [3] (setting [5]), the IC50 turned out to be 2970 nM.

For `O=C(Nc1ccc(Oc2ccnc(NC(=O)C3CC3)c2)c(F)c1)Nc1ccc(Cl)c(C(F)(F)F)c1` [Exe. 027], the IC50 came to 66.5 nM in test [2] (MDA-MB-231 cells, read-out: MDA-MB-231 pERK IC50) and 2390 nM in test [3] (PLC-PRF-5 cells, read-out: PLC-PRF-5 cell proliferation IC50).

(Values after patent publication US9359338B2, “Cyclopropanecarboxamido-substitute aromatic compounds as anti-tumor agents” (Crown Bioscience Inc. (Taiwan), priority 2012, dated 2016).)
